According to article PMC11676834, “Composition of Triterpene Glycosides of the Far Eastern Sea Cucumber Cucumaria conicospermium Levin et Stepanov; Structure Elucidation of Five Minor Conicospermiumosides A3-1, A3-2, A3-3, A7-1, and A7-2; Cytotoxicity of the Glycosides Against Human Breast Cancer Cell Lines; Structure–Activity …” (Marine Drugs, 2024):
Where a name gives a salt, the structure may show the parent alone. Read-outs that look alike come from different tables or passages of the source.

Tests used:
[1] = test system: human erythrocytes; assay: Hemolytic activity; format: cell-based; settings: Erythrocyte, 1 h at 37 °C, read-out: ED50, Erythrocytes (hemolytic activity)
Method: Human blood (B(III) Rh+) was used to obtain erythrocytes by centrifuging 450× g three times for 5 min with phosphate-buffered saline (PBS) (pH 7.4) at 4 °C on centrifuge LABOFUGE 400R (Heraeus, Hanau, Germany). Ice-cold PBS (pH 7.4) was used for resuspension of erythrocytes residue to a final optical density of 1.5 at 700 nm, which was kept on ice. Then, 10 µL of tested compound solution or control (okhotoside A1-1 (7)) were added to 90 µL of erythrocyte suspension in V-bottom 96-well plates and exposed for 1 h at 37 °C. Next, centrifugation at 900× g for 10 min on a laboratory centrifuge LMC-3000 (Biosan, Riga, Latvia), led to separation of layers, and 80 µL of supernatant was carefully decanted and transferred into new flat-plate for each. The values of erythrocyte lysis were measured on microplate photometer Multiskan FC (Thermo Fisher Scientific, Waltham, MA, USA) at λ = 570 nm as hemoglobin concentration in supernatant. The effective dose, causing lysis of 50% erythrocytes (ED50), was calculated with SigmaPlot 14.0 software. All the experiments were carried out in triple repetitions, p ≤ 0.05.

[2] = in vitro; format: cell-based, human; settings: human, MTT, 24 h; read-out: Cytotoxicity, IC50, MCF-10A
Excerpt: (§1) Human erythrocytes were purchased from the Station of Blood Transfusion, Vladivostok. Human mammary epithelial cell line MCF-10A CRL-10317, human breast cancer cell lines T-47D HTB-133, MCF-7 HTB-22, and MDA-MB-231 CRM-HTB-26 were received from ATCC (Manassas, VA, USA). Culturing conditions: medium of RPMI-1640 with 1% penicillin/streptomycin (Biolot, St. Petersburg, Russia) and 10% fetal bovine serum (FBS) (Biolot, St. Petersburg, Russia) for the T-47D cell line; Minimum Essential Medium (MEM) with 1% penicillin/streptomycin sulfate (Biolot, St. Petersburg, Russia) and FBS (Biolot, St. Petersburg, Russia) to a final concentration of 10% for MCF-7 and MDA-MB-231 cells; DMEM/F12 medium with 10% FBS, 20 ng/mL EGF, […] hydrocortisone, 100 ng/mL cholera toxin, 10 μg/mL insulin, and 1% penicillin/streptomycin (BioinnLabs, Rostov-on-Don, Russia) for MCF-10A cell line.
(§2) The concentrations of tested glycosides were 0.1–50 µM; positive controls were cisplatin and okhotoside A1-1 (7). […] Then, the solutions of tested compounds with medium were replaced by 100 µL of fresh medium, and 10 µL of 3-(4,5-dimethylthiazol-2-yl)-2,5-diphenyltetrazolium bromide (MTT) (PanReac, AppliChem, Darmstadt, Germany) stock solution (5 mg/mL) was added to each well and incubated for 4 h, followed by the addition of 100 µL of SDS-HCl solution (1 g SDS/10 mL d-H2O/17 µL 6 N HCl) and further incubated for 18 h. Multiskan FC microplate photometer (Thermo Fisher Scientific, Waltham, MA, USA) was used to measure the absorbance of the converted dye formazan at 570 nm. The concentration caused the 50% cell metabolic activity inhibition (IC50) expresses the cytotoxic activity of each glycoside. The experiments were conducted in triplicate, p ≤ 0.05.

[3] = test system: MCF-7 cells; assay: cells; format: cell-based, human; settings: MTT, 24 h, read-out: Cytotoxicity, IC50, MCF-7
Excerpt: as §1
(§3) The concentrations of tested glycosides were 0.1–50 µM; positive controls were cisplatin and okhotoside A1-1 (7). Methodology: to each well of 96-well plates, the cell suspension (180 µL) with solution (20 µL) of tested glycoside in a certain concentration was placed (MCF-10A, MCF-7, T-47D, and MDA-MB-231—7 × 10^3 cells per well) and incubated in the atmosphere with 5% CO2 at 37 °C for 24 h. Then, the solutions of tested compounds with medium were replaced by 100 µL of fresh medium, and 10 µL of 3-(4,5-dimethylthiazol-2-yl)-2,5-diphenyltetrazolium bromide (MTT) (PanReac, AppliChem, Darmstadt, Germany) stock solution (5 mg/mL) was added to each well and incubated for 4 h, followed by the addition of 100 µL of SDS-HCl solution (1 g SDS/10 mL d-H2O/17 µL 6 N HCl) and further incubated for 18 h. Multiskan FC microplate photometer (Thermo Fisher Scientific, Waltham, MA, USA) was used to measure the absorbance of the converted dye formazan at 570 nm. The concentration caused the 50% cell metabolic activity inhibition (IC50) expresses the cytotoxic activity of each glycoside. The experiments were conducted in triplicate, p ≤ 0.05.

[4] = test system: T-47D cells; assay: cells; format: cell-based, human; settings: MTT, 24 h, read-out: Cytotoxicity, IC50, T-47D
Excerpt: as §1, §3

[5] = test system: MDA-MB-231 cells; assay: cells; format: cell-based, human; settings: MTT, 24 h, read-out: Cytotoxicity, IC50, MDA-MB-231
Excerpt: as §1, §2

[6] = test system: MCF-10A cells; assay: in vitro; format: cell-based, human; settings: MTT, 24 h; read-out: Cytotoxicity, IC50, MCF-10A
Excerpt: as §1, §2

Question: For `CO[C@@H]1[C@@H](O)[C@H](O[C@@H]2[C@@H](O)[C@H](O[C@H]3[C@H](O)[C@@H](O[C@@H]4OC[C@@H](O)[C@H](O)[C@H]4O)[C@H](O[C@H]4[C@H](OC5CC[C@]6(C)[C@H]7CCC89C(=O)O[C@@](C)(CCCC(C)C)C8[C@@H](OC(C)=O)C[C@@]9(C)C7=CC[C@H]6C5(C)C)OC[C@@H](OS(=O)(=O)O)[C@@H]4O)O[C@@H]3C)OC[C@H]2O)O[C@H](CO)[C@H]1O` (stereo partly shown) [Frondoside A (10), frondoside A], which HC50 [1] is on record?
Answer: The HC50 was 1220 ± 60 nM.

Question: What about the IC50 [2] of the same molecule?
Answer: The IC50 was 11 ± 1.04 µM.

Question: What about the IC50 ([3]; Homo sapiens, MCF7) of the same molecule?
Answer: The IC50 was 19.4 ± 0.48 µM.

Question: What about the IC50 ([4]; Homo sapiens, T47D) of the same molecule?
Answer: The IC50 was 9.76 ± 0.53 µM.

Question: What about the IC50 ([5]; Homo sapiens, MDA-MB-231) of the same molecule?
Answer: Its IC50 is 2.79 ± 0.09 µM.

Question: With `CO[C@@H]1[C@@H](O)[C@H](O[C@@H]2[C@@H](O)[C@H](O[C@H]3[C@H](O)[C@@H](O[C@@H]4OC[C@@H](O)[C@H](O)[C@H]4O)[C@H](O[C@H]4[C@H](O[C@H]5CC[C@]6(C)C7CC[C@]8(C)[C@@H]([C@@](C)(O)[C@H](O)/C=C/C(C)(C)O)CC[C@@]8(C)C7=CC[C@H]6C5(C)C)OC[C@@H](OS(=O)(=O)O)[C@@H]4O)O[C@@H]3C)O[C@H](COS(=O)(=O)O)[C@H]2O)O[C@H](COS(=O)(=O)O)[C@H]1O` (stereo partly drawn) [Conicospermiumoside A7-2 (5), 3β-O-{6-O-sodium sulfate-3-O-methyl-β-D-glucopyranosyl-(1→3)-6-O-sodium sulfate-β-D-glucopyranosyl-(1→4)-[(1→2)-β-D-xylopyranosyl]-β-D-quinovopyranosyl-(1→2)-4-O-sodium sulfate-β-D-xylopyranosyl}-(20R,22R,25)-trihydroxylanosta-7,23-diene] as the molecule, how does the HC50 [1] read?
Answer: Its HC50 is 20400 ± 360 nM.

Question: And the IC50 [2]?
Answer: Its IC50 is > 50 µM.

Question: What about the IC50 ([3]; Homo sapiens, MCF7) of the same molecule?
Answer: The IC50 was > 50 µM.

Question: And the IC50 ([4]; Homo sapiens, T47D)?
Answer: The IC50 was > 50 µM.

Question: And the IC50 ([5]; Homo sapiens, MDA-MB-231)?
Answer: Its IC50 is 49.9 ± 1.45 µM.

Question: For `CO[C@@H]1[C@@H](O)[C@H](O[C@@H]2[C@@H](O)[C@H](O[C@H]3[C@H](O)[C@@H](O[C@@H]4OC[C@@H](O)[C@H](O)[C@H]4O)[C@H](O[C@H]4[C@H](O[C@H]5CC[C@]6(C)C7CC[C@]8(C)[C@@H]([C@@](C)(O)[C@@H](CC=C(C)C)OC(C)=O)CC[C@@]8(C)C7=CC[C@H]6C5(C)C)OC[C@@H](OS(=O)(=O)O)[C@@H]4O)O[C@@H]3C)O[C@H](COS(=O)(=O)O)[C@H]2O)O[C@H](CO)[C@H]1O` (stereo partly drawn) [Conicospermiumoside A3-2 (2), 3β-O-{3-O-methyl-β-D-glucopyranosyl-(1→3)-6-O-sodium sulfate-β-D-glucopyranosyl-(1→4)-[(1→2)-β-D-xylopyranosyl]-β-D-quinovopyranosyl-(1→2)-4-O-sodium sulfate-β-D-xylopyranosyl}-20R-hydroxy,22R-acetoxylanosta-7,24-diene], which HC50 [1] is on record?
Answer: Its HC50 is 7560 ± 80 nM.

Question: What about the IC50 [2] of the same molecule?
Answer: Its IC50 is 36.8 ± 2.48 µM.

Question: What about the IC50 ([3]; Homo sapiens, MCF7) of the same molecule?
Answer: Its IC50 is > 50 µM.

Question: And the IC50 ([4]; Homo sapiens, T47D)?
Answer: The IC50 was 38.9 ± 1.62 µM.

Question: And the IC50 ([5]; Homo sapiens, MDA-MB-231)?
Answer: The IC50 was 20.7 ± 2.28 µM.

Question: For `COC1C(O)C(CO)OC(OC2C(O)COC(OC3C(C)OC(OC4C(OC5CCC6(C)C7CCC89C(=O)OC(C)(CC(=O)CC(C)C)C8C(OC(C)=O)CC9(C)C7=CCC6C5(C)C)OCC(OS(=O)(=O)O)C4O)C(O)C3O)C2O)C1O` (stereo not shown) [Okhotoside A1-1 (7), okhotoside A1-1], which HC50 [1] is on record?
Answer: The HC50 was 420 ± 20 nM.

Question: What about the IC50 [2] of the same molecule?
Answer: Its IC50 is 7.95 ± 0.44 µM.

Question: What about the IC50 ([3]; Homo sapiens, MCF7) of the same molecule?
Answer: Its IC50 is 10.9 ± 0.96 µM.

Question: What about the IC50 ([4]; Homo sapiens, T47D) of the same molecule?
Answer: Its IC50 is 6.23 ± 0.68 µM.

Question: And the IC50 ([5]; Homo sapiens, MDA-MB-231)?
Answer: The IC50 was 2.25 ± 0.17 µM.

Question: For `C=C(C)CCC[C@]1(C)OC(=O)C23CC[C@H]4C(=CC[C@H]5C(C)(C)C(O[C@@H]6OC[C@@H](OS(=O)(=O)O)[C@H](O)[C@H]6O[C@@H]6O[C@H](CO)[C@@H](O[C@@H]7O[C@H](COS(=O)(=O)O)[C@@H](O)[C@H](O[C@@H]8O[C@H](CO)[C@@H](O)[C@H](OC)[C@H]8O)[C@H]7O)[C@H](O)[C@H]6O[C@@H]6OC[C@@H](O)[C@H](O)[C@H]6O)CC[C@]45C)[C@]2(C)C[C@H](OC(C)=O)C31` (stereo partly shown) [Okhotoside B2 (9), okhotoside B2], which HC50 [1] is on record?
Answer: The HC50 was 1360 ± 100 nM.

Question: What about the IC50 [2] of the same molecule?
Answer: Its IC50 is 10.7 ± 0.21 µM.

Question: And the IC50 ([3]; Homo sapiens, MCF7)?
Answer: Its IC50 is 39.8 ± 2.96 µM.

Question: And the IC50 ([4]; Homo sapiens, T47D)?
Answer: Its IC50 is 11.1 ± 1.15 µM.

Question: What about the IC50 ([5]; Homo sapiens, MDA-MB-231) of the same molecule?
Answer: Its IC50 is 4.25 ± 0.38 µM.

Question: Which IC50 [6] does the source give for `N.N.[Cl][Pt][Cl]` [cisplatin, reference compound] here?
Answer: Its IC50 is 74.3 ± 2.19 µM.

Question: What about the IC50 [3] of the same molecule?
Answer: The IC50 was 113 ± 2.45 µM.

Question: And the IC50 [4]?
Answer: Its IC50 is > 160 µM.

Question: And the IC50 [5]?
Answer: The IC50 was ≥ 160 µM.

Question: Which HC50 [1] does the source give for `CO[C@@H]1[C@@H](O)[C@H](O[C@@H]2[C@@H](O)[C@H](O[C@H]3[C@H](O)[C@@H](O[C@@H]4OC[C@@H](O)[C@H](O)[C@H]4O)[C@H](O[C@H]4[C@H](O[C@H]5CC[C@]6(C)C7CC[C@]8(C)[C@@H]([C@@](C)(O)[C@H](O)CC=C(C)C)CC[C@@]8(C)C7=CC[C@H]6C5(C)C)OC[C@@H](OS(=O)(=O)O)[C@@H]4O)O[C@@H]3C)O[C@H](COS(=O)(=O)O)[C@H]2O)O[C@H](COS(=O)(=O)O)[C@H]1O` (stereo partly shown) [Frondoside A7-4 (14), frondoside A7-4] here?
Answer: Its HC50 is 2160 ± 60 nM.

Question: What about the IC50 [2] of the same molecule?
Answer: Its IC50 is 26.8 ± 0.94 µM.

Question: And the IC50 ([3]; Homo sapiens, MCF7)?
Answer: The IC50 was 32.9 ± 2.13 µM.

Question: And the IC50 ([4]; Homo sapiens, T47D)?
Answer: Its IC50 is 44.5 ± 2.18 µM.

Question: And the IC50 ([5]; Homo sapiens, MDA-MB-231)?
Answer: The IC50 was 8.11 ± 0.74 µM.
